According to patent publication US9718770B2, “Substituted thioureas as heat shock protein 70 inhibitors” (Institute of Pharmacology and Toxicology Academy of …, priority 2013, dated 2017):

Experiments:
SK-BR3 = experiment: CDI of example compounds and Lapatinib (ATPlite cell survival); assay type: cell-based; parameters: key: CDI = AB/(A×B); <1 synergistic; details: compound 5 μM + Lapatinib 1 μM, 72 h; Lapatinib-sensitive human breast cancer cells; CDI<1 synergistic
Experimental: (§1) Cells: (BT474 and SK-BR3 are Lapatinib-sensitive human breast cancer cell strains; BT/LapR and SK/LapR are secondary Lapatinib-resistant human breast cancer cell strains upon Lapatinib stimulation; MDA-MB-361 and MDA-MB-453 are natural Lapatinib-resistant human breast cancer cell strains. BT474, MDA-MB-361, SK-BR3 and MDA-MB-453 are from American Type Culture Collection (ATCC))
(§2) In a 100 mm culture dish full of adherent cells, digestion with 1 ml 0.25% pancreatin (GIBCO) was carried out at 37° C. for 5 min, and the reaction was stopped with 2 ml medium (containing 10% FBS, GIBCO). The cells were dispersed and collected. After cell count, the cells were diluted to a concentration of 1×10^5 cells/ml, and were seeded to a 96-well plate at 50 μl/well, 5000 cell/well, 60 wells in total, PBS instead of cells was added to the wells of the outmost circle, and the incubation was carried out at 37° C. for 24 h for adherence.
(§3) For the sample group, samples to be tested were diluted with DMSO to a final concentration of 5 μM; to control wells, the medium containing the same concentration of solvent corresponding to the compound was added, the concentrations of the compounds were identical in each well, 5 wells in parallel were set for each concentration, 25 μL/well, and 25 μL medium was added to each well (for the combination group, 25 μL Lapatinib was added to reach a final concentration of 1 μM). The incubation was carried out at 37° C. for 72 h.
(§4) To each well, 50 μL ATPlite kit substrate solution was added. The plate was under shaking for 3 min, and was then placed in dark for 10 min. The lysis supernatant was drawn at 100 μL/well, and placed in a luminescent plate. The incubated luminescent plate was placed in an iluminescence apparatus, and the iluminescent value was read.
(§5) Data Processing Cell survival rate (%)=Experimental group RLU/control group RLU×100%
(§6) Coefficient of drug interaction (CDI) is used to evaluate the interaction of two drugs, CDI is calculated in accordance with the following formula: CDI=AB/(A×B)×100%. The calculation is performed according to the number of live cells (luminescent value), if CDI<1, the two drugs have a synergistic effect; if CDI<0.7, the synergistic effect is very significant; if CDI=1, the effect of the two drugs in combination is the sum of the effects of the two drugs; if CDI>1, the two drugs have an antagonistic effect.

BT474 = experiment: as above; assay type: cell-based; parameters: key: CDI = AB/(A×B); <1 synergistic; details: compound 5 μM + Lapatinib 1 μM, 72 h; Lapatinib-sensitive human breast cancer cells; CDI<1 synergistic, <0.7 very significant, >1 antagonistic
Experimental: as §1, §2, §3, §4, §5, §6

MDA-MB-453 = experiment: as above; assay type: cell-based; parameters: key: CDI = AB/(A×B); <1 synergistic; details: compound 5 μM + Lapatinib 1 μM, 72 h; natural Lapatinib-resistant human breast cancer cells; CDI<1 synergistic
Experimental: as §1, §2, §3, §4, §5, §6

MDA-MB-361 = experiment: as above; assay type: cell-based; parameters: key: CDI = AB/(A×B); <1 synergistic; details: compound 5 μM + Lapatinib 1 μM, 72 h; natural Lapatinib-resistant human breast cancer cells; CDI<1 synergistic
Experimental: as §1, §2, §3, §4, §5, §6

Hsp70 ATPase = target: T1, Hsp70 ATPase (Homo sapiens, UniProt P0DMV8); experiment: Inhibition of Hsp70 ATPase activity (malachite green); assay type: biochemical; details: 200 μM; repeated screening carried out twice; Hsp70/Hsp40, 1 mM ATP; read-out: Inhibitory rate (%) on activity of Hsp70 ATPase
T1 construct: made in house; host or cells: E. coli
Experimental: (1) Protein: Humanized Hsp70, Hsp40, expressed by E. coli.
(2) Sample to be tested: 26 compound solids with different colors and states. Positive drugs AZ (CAS:1054543-47-3) and VER 155008 (CAS: 1134156-31-2) were synthesized in the laboratory.
(4) ATPase Assay buffer: • 0.017% Triton X-100; • 100 mM Tris-HCl; • 20 mM KCl; • 6 mM MgCl2, pH 7.4.
1) 13.08 μl DnaK (0.15 mg/mL, 2.14 μM), 1.96 μl DnaJ (1 mg/mL, 25 μM) were dissolved in 7.96 μl Assay Buffer (0.017% Triton X-100, 100 mM Tris-HCl, 20 mM KCl, and 6 mM MgCl2, pH 7.4), and the resultant solution was added to each well of the 96 well plate;
2) to each well of the 96 well plate, 1 μL sample to be tested (5 mM) or DMSO (solvent) was added, and vortexed with a Vortex agitator for 10 min; and then standing at 37° C. for 30 min;
3) to each well, 1 μL 25 mM ATP was added, to trigger the enzymatic reaction; (in each well, the final reaction volume was 25 μL, the final concentration of DnaK was 1.12 μM, the final concentration of DnaJ was 1.96 μM, the final concentration of DMSO was 4%, the final concentration of Triton X-100 was 0.01%, the final concentration of ATP was 1 mM, and the final concentration of sample to be tested was 200 μM), the enzymatic reaction was carried out at 37° C. for 3 h;
4) 80 μL Malachite green staining solution was then added to each well, and was vortexed gently;
5) 10 μL of 34% citrate sodium was then added immediately, and vortexed gently, to stop the ATP hydrolysis not caused by ATPase;
6) the resultant mixture was mixed thoroughly at 37° C. for 15 min, and OD620 was measured.
The inhibitory rate of Hsp70 ATPase activity is calculated in accordance with the following formula: Inhibitory rate (%)=(DMSO well OD−Experimental well OD)/(DMSO well OD−Blank well OD)×100
Criteria for preliminary screening: during preliminary screening, an example compound is regarded as effective in inhibition as long as its inhibitory rate is above 20% for Hsp70 ATPase at 200 μM.

SK/Lap^R1.0 = experiment: CDI of example compounds and Lapatinib (ATPlite cell survival); assay type: cell-based; details: compound 5 μM + Lapatinib 1 μM, 72 h; secondary Lapatinib-resistant human breast cancer cells; CDI<1 synergistic
Experimental: as §1, §2, §3, §4, §5, §6

BT/Lap^R1.0 = experiment: as above; assay type: cell-based; details: compound 5 μM + Lapatinib 1 μM, 72 h; secondary Lapatinib-resistant human breast cancer cells; CDI<1 synergistic
Experimental: as §1, §2, §3, §4, §5, §6

T1 sequence (P0DMV8 2-641 limits assumed): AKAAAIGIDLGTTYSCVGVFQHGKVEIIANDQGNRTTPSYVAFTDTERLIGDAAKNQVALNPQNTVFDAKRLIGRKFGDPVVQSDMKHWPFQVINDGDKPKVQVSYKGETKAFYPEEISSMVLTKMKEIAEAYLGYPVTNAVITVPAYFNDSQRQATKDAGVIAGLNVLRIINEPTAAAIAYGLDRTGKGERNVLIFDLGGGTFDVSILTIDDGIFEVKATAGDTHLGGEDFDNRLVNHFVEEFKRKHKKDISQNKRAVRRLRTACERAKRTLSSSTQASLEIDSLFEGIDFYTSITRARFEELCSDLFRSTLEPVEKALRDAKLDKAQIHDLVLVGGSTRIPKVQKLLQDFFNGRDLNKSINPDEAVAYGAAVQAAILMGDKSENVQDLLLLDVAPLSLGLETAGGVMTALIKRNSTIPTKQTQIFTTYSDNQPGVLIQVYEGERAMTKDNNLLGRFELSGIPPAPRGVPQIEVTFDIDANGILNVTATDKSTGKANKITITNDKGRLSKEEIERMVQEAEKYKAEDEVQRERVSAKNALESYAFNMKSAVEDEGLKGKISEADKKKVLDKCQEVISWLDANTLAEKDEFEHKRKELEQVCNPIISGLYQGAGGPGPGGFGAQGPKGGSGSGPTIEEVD

SMILES | inhibition at 200 µM (Hsp70 ATPase) | CDI of example compounds and Lapatinib, SK-BR3 (SK-BR3) | CDI of example compounds and Lapatinib, BT474 (BT474) | CDI of example compounds and Lapatinib, MDA-MB-453 (MDA-MB-453) | CDI of example compounds and Lapatinib, MDA-MB-361 (MDA-MB-361) | CDI of example compounds and Lapatinib, SK/Lap^R1.0 (SK/Lap^R1.0) | CDI of example compounds and Lapatinib, BT/Lap^R1.0 (BT/Lap^R1.0)
Cc1ccccc1NC(=S)NC(CC(C)(C)C)NC(=O)/C=C/c1ccccc1 (stereo not drawn) [Example 46, N-[3,3-dimethyl-1-(3-o-methylphenylthioureido)butyl] cinnamamide] | 41% | 1.29 | 0.74 | 1.64 | 0.94 | 1.25 | 0.79
Cc1ccccc1NC(=S)NC(NC(=O)/C=C/c1ccccc1)C(C)(C)C (stereo not drawn) [Example 48, N-[2,2-dimethyl-1-(3-o-methylphenylthioureido)propyl] cinnamamide] | -0.88% | 1.15 | 0.92 | 1.2 | 1.15 | 0.99 | 0.96
COc1cc(/C=C/C(=O)NC(CC(C)(C)C)NC(=S)Nc2cccnc2)cc(OC)c1OC (stereo not drawn) [Example 33, (2E)-N-[3,3-dimethyl-1-(3-pyridin-3-ylthioureido)butyl]-3-(3,4,5-trimethoxyphenyl) acrylamide] | 47.1% | 0.96 | 0.81 | 1.19 | 0.89 | 0.88 | 0.97
COc1cc(/C=C/C(=O)NC(CC(C)(C)C)NC(=S)Nc2ccccn2)cc(OC)c1OC (stereo not drawn) [Example 34, (2E)-N-[3,3-dimethyl-1-(3-pyridin-2-ylthioureido)butyl]-3-(3,4,5-trimethoxyphenyl) acrylamide] | 9.36% | 0.98 | 0.98 | 1.41 | 0.87 | 0.85 | 1

More lines, main results first:

inhibition at 200 µM (Hsp70 ATPase) | SMILES | CDI of example compounds and Lapatinib, SK-BR3 (SK-BR3) | CDI of example compounds and Lapatinib, BT474 (BT474) | CDI of example compounds and Lapatinib, MDA-MB-453 (MDA-MB-453) | CDI of example compounds and Lapatinib, MDA-MB-361 (MDA-MB-361) | CDI of example compounds and Lapatinib, SK/Lap^R1.0 (SK/Lap^R1.0) | CDI of example compounds and Lapatinib, BT/Lap^R1.0 (BT/Lap^R1.0)
58.4% | CC(C)CC(NC(=O)/C=C/c1ccccc1)NC(=S)NC1CCCCC1 (stereo not drawn) [Example 54, N-[1-(3-cyclohexylthioureido)-3-methylbutyl] cinnamamide] | 1.16 | 0.77 | 1.2 | 0.9 | 1.14 | 0.98
24.4% | COc1cc(/C=C/C(=O)NC(NC(=S)NC2CCCCC2)C(C)C)cc(OC)c1OC (stereo not drawn) [Example 53, (2E)-N-[1-(3-cyclohexylthioureido)-2-methylpropyl]-3-(3,4,5-trimethoxyphenyl) acrylamide] | 0.97 | 0.82 | 1.33 | 1.19 | 1.23 | 0.8
